The source of these data is ChEMBL document CHEMBL3351497, “Structure Activity Relationships of αv Integrin Antagonists for Pulmonary Fibrosis by Variation in Aryl Substituents” (ACS Med Chem Lett, 2014).

One data set addresses Integrin alpha-V/beta-6 (Homo sapiens, UniProt P06756+P18564). The data set is described as follows: Inhibition of integrin alphavbeta6 (unknown origin)-mediated K562 cell adhesion to LAPb1 coated surface by fluorescence analysis. Format: cell-based.
The next data set concerns the target Integrin alpha-V/beta-8 (Homo sapiens, UniProt P06756+P26012). As to the kind of experiment: Inhibition of integrin alphavbeta8 (unknown origin)-mediated K562 cell adhesion to LAPb1 coated surface by fluorescence analysis. Format: cell-based.
The target in the next data set is Integrin alpha-V/beta-5 (Homo sapiens, UniProt P06756+P18084). As to the kind of experiment: Inhibition of integrin alphavbeta5 (unknown origin)-mediated K562 cell adhesion to vitronectin coated surface by fluorescence analysis. It is filed as cell-based.
A short description of data set [1]: Lipophilicity, log D of the compound by HPLC chromatographic method. It is filed as physicochemical.
In another data set the target is Integrin alpha-V/beta-3 (Homo sapiens, UniProt P05106+P06756). The data set is described as follows: Inhibition of integrin alphavbeta3 (unknown origin)-mediated K562 cell adhesion to LAPb1 coated surface by fluorescence analysis. Format: cell-based.
Integrin alpha-V/beta-3, sequence (P05106 27-788 limits assumed): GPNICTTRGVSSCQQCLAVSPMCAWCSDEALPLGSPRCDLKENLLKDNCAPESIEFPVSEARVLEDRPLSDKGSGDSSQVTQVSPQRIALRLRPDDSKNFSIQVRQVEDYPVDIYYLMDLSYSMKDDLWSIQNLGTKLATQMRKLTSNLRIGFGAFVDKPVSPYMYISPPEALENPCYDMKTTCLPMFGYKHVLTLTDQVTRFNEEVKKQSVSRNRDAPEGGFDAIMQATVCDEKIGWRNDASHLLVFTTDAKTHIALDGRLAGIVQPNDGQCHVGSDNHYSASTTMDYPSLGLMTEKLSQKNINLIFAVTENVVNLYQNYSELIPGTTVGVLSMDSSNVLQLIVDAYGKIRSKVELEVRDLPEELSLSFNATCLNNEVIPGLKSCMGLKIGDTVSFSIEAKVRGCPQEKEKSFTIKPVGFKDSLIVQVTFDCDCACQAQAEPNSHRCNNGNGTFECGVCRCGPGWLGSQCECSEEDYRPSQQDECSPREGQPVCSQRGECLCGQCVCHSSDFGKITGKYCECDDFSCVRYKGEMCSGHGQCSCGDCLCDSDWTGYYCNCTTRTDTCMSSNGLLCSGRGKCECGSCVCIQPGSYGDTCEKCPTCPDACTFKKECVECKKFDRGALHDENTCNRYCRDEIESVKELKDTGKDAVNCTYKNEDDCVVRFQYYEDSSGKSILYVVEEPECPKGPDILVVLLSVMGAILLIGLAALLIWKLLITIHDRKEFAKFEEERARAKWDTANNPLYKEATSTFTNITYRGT
Integrin alpha-V/beta-3, sequence (P06756 31-889 limits assumed): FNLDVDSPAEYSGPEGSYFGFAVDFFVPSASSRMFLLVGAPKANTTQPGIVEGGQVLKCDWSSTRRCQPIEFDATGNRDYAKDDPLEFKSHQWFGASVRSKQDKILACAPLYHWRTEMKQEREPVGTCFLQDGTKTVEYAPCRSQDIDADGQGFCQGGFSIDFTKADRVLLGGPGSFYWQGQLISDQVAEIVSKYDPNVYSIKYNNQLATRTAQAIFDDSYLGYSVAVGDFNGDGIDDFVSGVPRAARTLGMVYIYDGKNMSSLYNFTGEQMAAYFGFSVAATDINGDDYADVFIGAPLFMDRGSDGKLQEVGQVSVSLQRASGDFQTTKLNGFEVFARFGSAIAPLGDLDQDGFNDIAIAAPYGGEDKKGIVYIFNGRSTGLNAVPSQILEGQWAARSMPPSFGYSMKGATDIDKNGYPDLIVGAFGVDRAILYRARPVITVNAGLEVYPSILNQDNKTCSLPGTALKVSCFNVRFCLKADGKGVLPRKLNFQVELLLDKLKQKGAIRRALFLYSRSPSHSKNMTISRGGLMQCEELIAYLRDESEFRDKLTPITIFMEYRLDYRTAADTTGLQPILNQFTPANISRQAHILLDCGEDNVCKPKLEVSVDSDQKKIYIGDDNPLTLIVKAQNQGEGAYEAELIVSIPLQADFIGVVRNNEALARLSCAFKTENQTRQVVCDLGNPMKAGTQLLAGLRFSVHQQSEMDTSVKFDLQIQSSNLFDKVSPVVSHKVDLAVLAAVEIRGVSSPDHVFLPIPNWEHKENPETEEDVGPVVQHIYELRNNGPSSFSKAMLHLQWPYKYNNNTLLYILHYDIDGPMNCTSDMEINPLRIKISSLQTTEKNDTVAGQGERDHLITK
Integrin alpha-V/beta-3, sequence (P06756 891-1048 limits assumed): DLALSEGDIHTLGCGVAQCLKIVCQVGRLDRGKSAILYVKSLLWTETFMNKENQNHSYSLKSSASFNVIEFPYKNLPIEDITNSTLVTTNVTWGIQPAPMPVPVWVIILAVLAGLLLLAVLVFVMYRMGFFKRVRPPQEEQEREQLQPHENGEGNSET

Integrin alpha-V/beta-5, sequence (P06756 31-889 limits assumed): as the sequence (P06756 31-889 limits assumed) above
Integrin alpha-V/beta-5, sequence (P06756 891-1048 limits assumed): as the sequence (P06756 891-1048 limits assumed) above
Integrin alpha-V/beta-5, sequence (P18084 24-799 limits assumed): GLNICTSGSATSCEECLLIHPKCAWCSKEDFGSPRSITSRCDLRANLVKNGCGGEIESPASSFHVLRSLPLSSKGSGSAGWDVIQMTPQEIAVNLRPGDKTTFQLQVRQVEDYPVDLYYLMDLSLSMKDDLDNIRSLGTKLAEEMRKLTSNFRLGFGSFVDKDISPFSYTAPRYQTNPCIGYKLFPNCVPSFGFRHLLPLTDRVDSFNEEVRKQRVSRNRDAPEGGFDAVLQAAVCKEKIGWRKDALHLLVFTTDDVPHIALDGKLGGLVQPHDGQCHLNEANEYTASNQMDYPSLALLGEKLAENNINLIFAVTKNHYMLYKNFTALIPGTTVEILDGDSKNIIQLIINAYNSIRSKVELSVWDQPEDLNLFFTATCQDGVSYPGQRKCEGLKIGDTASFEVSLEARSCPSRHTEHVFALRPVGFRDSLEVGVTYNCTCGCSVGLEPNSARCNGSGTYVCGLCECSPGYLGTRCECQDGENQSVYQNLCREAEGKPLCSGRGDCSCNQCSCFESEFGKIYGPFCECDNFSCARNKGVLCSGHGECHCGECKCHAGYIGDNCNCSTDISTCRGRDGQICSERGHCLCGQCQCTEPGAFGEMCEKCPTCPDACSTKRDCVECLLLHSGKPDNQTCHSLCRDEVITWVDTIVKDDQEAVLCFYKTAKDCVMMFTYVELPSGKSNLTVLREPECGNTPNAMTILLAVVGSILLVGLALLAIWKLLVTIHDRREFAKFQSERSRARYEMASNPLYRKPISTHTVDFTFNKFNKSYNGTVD
Integrin alpha-V/beta-6, sequence (P06756 31-889 limits assumed): as the sequence (P06756 31-889 limits assumed) above
Integrin alpha-V/beta-6, sequence (P06756 891-1048 limits assumed): as the sequence (P06756 891-1048 limits assumed) above
Integrin alpha-V/beta-6, sequence (P18564 22-788 limits assumed): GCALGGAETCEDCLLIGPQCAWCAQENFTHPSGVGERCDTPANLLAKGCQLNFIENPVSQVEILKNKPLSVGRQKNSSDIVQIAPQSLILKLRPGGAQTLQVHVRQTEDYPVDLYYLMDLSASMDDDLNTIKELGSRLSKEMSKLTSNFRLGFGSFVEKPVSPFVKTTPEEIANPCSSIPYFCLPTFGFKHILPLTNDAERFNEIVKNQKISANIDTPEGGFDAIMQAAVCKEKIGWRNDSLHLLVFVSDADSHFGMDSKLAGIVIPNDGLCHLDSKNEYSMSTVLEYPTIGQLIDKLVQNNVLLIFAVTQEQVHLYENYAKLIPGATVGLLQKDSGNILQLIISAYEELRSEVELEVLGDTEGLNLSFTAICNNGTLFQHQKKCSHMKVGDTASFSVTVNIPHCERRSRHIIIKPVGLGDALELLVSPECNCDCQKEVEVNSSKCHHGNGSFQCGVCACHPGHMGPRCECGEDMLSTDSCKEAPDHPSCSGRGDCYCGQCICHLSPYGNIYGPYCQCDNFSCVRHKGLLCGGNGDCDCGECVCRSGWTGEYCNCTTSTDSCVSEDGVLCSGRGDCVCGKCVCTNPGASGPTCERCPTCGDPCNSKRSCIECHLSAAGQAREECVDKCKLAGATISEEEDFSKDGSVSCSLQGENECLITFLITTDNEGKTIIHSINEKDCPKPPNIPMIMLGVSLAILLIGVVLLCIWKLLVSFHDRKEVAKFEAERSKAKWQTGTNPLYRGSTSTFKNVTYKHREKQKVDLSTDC
Integrin alpha-V/beta-8, sequence (P06756 31-889 limits assumed): as the sequence (P06756 31-889 limits assumed) above
Integrin alpha-V/beta-8, sequence (P06756 891-1048 limits assumed): as the sequence (P06756 891-1048 limits assumed) above
Integrin alpha-V/beta-8, sequence (P26012 43-769 limits assumed): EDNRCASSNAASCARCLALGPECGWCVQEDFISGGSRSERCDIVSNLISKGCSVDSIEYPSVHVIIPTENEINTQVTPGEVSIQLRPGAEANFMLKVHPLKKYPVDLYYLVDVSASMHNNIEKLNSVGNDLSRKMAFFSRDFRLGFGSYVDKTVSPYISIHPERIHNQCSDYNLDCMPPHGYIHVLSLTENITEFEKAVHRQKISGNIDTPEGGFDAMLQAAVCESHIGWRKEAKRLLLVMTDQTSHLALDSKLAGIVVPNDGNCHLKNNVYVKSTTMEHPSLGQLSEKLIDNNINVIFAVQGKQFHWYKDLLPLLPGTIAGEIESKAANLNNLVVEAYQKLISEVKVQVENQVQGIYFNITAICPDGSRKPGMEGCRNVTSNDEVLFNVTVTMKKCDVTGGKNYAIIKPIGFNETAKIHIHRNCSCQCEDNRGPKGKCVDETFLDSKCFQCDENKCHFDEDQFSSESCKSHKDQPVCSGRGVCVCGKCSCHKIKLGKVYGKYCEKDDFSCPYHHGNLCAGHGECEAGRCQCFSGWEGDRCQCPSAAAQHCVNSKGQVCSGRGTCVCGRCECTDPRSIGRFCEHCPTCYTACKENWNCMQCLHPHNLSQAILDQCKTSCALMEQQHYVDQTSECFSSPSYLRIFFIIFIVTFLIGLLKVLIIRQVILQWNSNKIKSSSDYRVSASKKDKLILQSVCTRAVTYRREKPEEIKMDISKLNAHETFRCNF

For the compound `O=C(O)CC(NC(=O)CCCCc1ccc2c(n1)NCCC2)c1cc(Cl)cc(Cl)c1` (stereo in doubt; 37E1), the concentration for half-maximal inhibition (IC50) against Integrin alpha-V/beta-6 is 6310 nM; against Integrin alpha-V/beta-8 it was more than 10000 nM; against Integrin alpha-V/beta-5, 1000 nM; at Integrin alpha-V/beta-3, more than 10000 nM. The log distribution coefficient (logD) in data set [1] is 2.97.

For the compound `O=C(O)C[C@H](NC(=O)CCCCc1ccc2c(n1)NCCC2)c1cccc(C(F)(F)F)c1`, the IC50 at Integrin alpha-V/beta-6 was 79.4 nM; against Integrin alpha-V/beta-8 it was 126 nM; on Integrin alpha-V/beta-5, 63.1 nM; against Integrin alpha-V/beta-3, 100 nM. Also, the chromatographic logD in data set [1] stood at 2.72.

On to `O=C(O)CC(NC(=O)CCCCc1ccc2c(n1)NCCC2)c1ccc(Cl)c(Cl)c1` (racemic), for which the half-maximal inhibitory concentration (IC50) on Integrin alpha-V/beta-6 is 200 nM; at Integrin alpha-V/beta-8, 200 nM; on Integrin alpha-V/beta-5, 100 nM; at Integrin alpha-V/beta-3 it was 50.1 nM. For the same compound, the chromatographic logD in data set [1] was found to be 2.62.

Turning to `O=C(O)CC(NC(=O)CCCCc1ccc2c(n1)NCCC2)c1cccc(C(F)(F)F)c1` (racemic), the IC50 on Integrin alpha-V/beta-6 was 100 nM; on Integrin alpha-V/beta-8, 158 nM; against Integrin alpha-V/beta-5, 39.8 nM; on Integrin alpha-V/beta-3, 200 nM. In addition, in data set [1], the chromatographic logD worked out at 2.73.

Consider `COc1ccccc1C(CC(=O)O)NC(=O)CCCCc1ccc2c(n1)NCCC2` (racemic), for which the IC50 was more than 10000 nM at Integrin alpha-V/beta-6, more than 10000 nM at Integrin alpha-V/beta-8, 501 nM against Integrin alpha-V/beta-5 and 501 nM against Integrin alpha-V/beta-3. For the same compound, the chromatographic logD in data set [1] was 1.83.

Take `O=C(O)CC(NC(=O)CCCCc1ccc2c(n1)NCCC2)c1ccc(OC(F)(F)F)cc1` (racemic): the IC50 at Integrin alpha-V/beta-6 was 631 nM; against Integrin alpha-V/beta-8, 794 nM; against Integrin alpha-V/beta-5 it was 501 nM; against Integrin alpha-V/beta-3 it was 158 nM. Also, the chromatographic logD in data set [1] is 2.85.

In the case of `O=C(O)CC(NC(=O)CCCCc1ccc2c(n1)NCCC2)c1ccc(F)cc1` (racemic), the half-inhibitory concentration (IC50) at Integrin alpha-V/beta-6 is 501 nM; at Integrin alpha-V/beta-8, 501 nM; at Integrin alpha-V/beta-5, 63.1 nM; at Integrin alpha-V/beta-3, 100 nM. Moreover, in data set [1], the chromatographic logD was 1.75.

For the compound `O=C(O)CC(NC(=O)CCCCc1ccc2c(n1)NCCC2)c1ccc(Cl)c(C(F)(F)F)c1` (single isomer, unassigned; enantiomer 1), the concentration for half-maximal inhibition (IC50) on Integrin alpha-V/beta-6 was 63.1 nM; against Integrin alpha-V/beta-8, 126 nM; on Integrin alpha-V/beta-5 it was 63.1 nM; at Integrin alpha-V/beta-3, 158 nM. Besides, the logD in data set [1] came out at 3.28.

For `O=C(O)CC(NC(=O)CCCCc1ccc2c(n1)NCCC2)c1cc(Cl)cc(Cl)c1` (single isomer, unassigned; enantiomer 2), the 50% inhibitory concentration (IC50) is 158 nM on Integrin alpha-V/beta-6, 100 nM against Integrin alpha-V/beta-8, 251 nM against Integrin alpha-V/beta-5 and 126 nM against Integrin alpha-V/beta-3. This compound came in with a logD in data set [1] of 2.8.

`O=C(O)CC(NC(=O)CCCCc1ccc2c(n1)NCCC2)c1ccccc1Cl` (racemic): the IC50 is more than 10000 nM against Integrin alpha-V/beta-6, more than 10000 nM against Integrin alpha-V/beta-8, 1580 nM against Integrin alpha-V/beta-5 and 2000 nM at Integrin alpha-V/beta-3. Moreover, the chromatographic logD in data set [1] is 1.92.

Take `O=C(O)CC(NC(=O)CCCCc1ccc2c(n1)NCCC2)c1cccc(OC(F)(F)F)c1` (racemic): the concentration for half-maximal inhibition (IC50) on Integrin alpha-V/beta-6 was 200 nM; against Integrin alpha-V/beta-8, 251 nM; against Integrin alpha-V/beta-5, 79.4 nM; against Integrin alpha-V/beta-3, 398 nM. In data set [1], the chromatographic logD is 3.11.

`N=C(N)Nc1cccc(C(=O)NCC(=O)NC(CC(=O)O)c2cc(Cl)cc(Cl)c2)c1` (stereo unspecified) had an IC50 at Integrin alpha-V/beta-6 of 158 nM.

For the compound `CS(=O)(=O)c1ccc(C(CC(=O)O)NC(=O)CCCCc2ccc3c(n2)NCCC3)cc1` (racemic), the IC50 is 631 nM against Integrin alpha-V/beta-6, 794 nM against Integrin alpha-V/beta-8, 398 nM at Integrin alpha-V/beta-5 and 126 nM against Integrin alpha-V/beta-3. Moreover, the chromatographic logD in data set [1] stood at 1.08.

Take `N#Cc1ccc(C(CC(=O)O)NC(=O)CCCCc2ccc3c(n2)NCCC3)cc1` (racemic): the IC50 on Integrin alpha-V/beta-6 is 398 nM; against Integrin alpha-V/beta-8 it was 794 nM; at Integrin alpha-V/beta-5 it was 398 nM; against Integrin alpha-V/beta-3 it was 79.4 nM. The same compound registered a chromatographic logD in data set [1] of 1.47.

Turning to `Cc1ccc(C(CC(=O)O)NC(=O)CCCCc2ccc3c(n2)NCCC3)cc1C` (racemic), the half-inhibitory concentration (IC50) at Integrin alpha-V/beta-6 is 200 nM; at Integrin alpha-V/beta-8, 501 nM; against Integrin alpha-V/beta-5, 63.1 nM; against Integrin alpha-V/beta-3, 63.1 nM. In addition, the chromatographic logD in data set [1] was 2.29.

As to `COc1ccc(C(CC(=O)O)NC(=O)CCCCc2ccc3c(n2)NCCC3)cc1OC` (racemic), the IC50 against Integrin alpha-V/beta-6 was 316 nM; against Integrin alpha-V/beta-8, 398 nM; against Integrin alpha-V/beta-5, 63.1 nM; at Integrin alpha-V/beta-3, 100 nM. Also, in data set [1], the chromatographic logD was found to be 1.37.

On to `N#Cc1cccc(C(CC(=O)O)NC(=O)CCCCc2ccc3c(n2)NCCC3)c1` (racemic), for which the IC50 is 251 nM at Integrin alpha-V/beta-6, 1000 nM on Integrin alpha-V/beta-8, 39.8 nM at Integrin alpha-V/beta-5 and 200 nM against Integrin alpha-V/beta-3. Besides, in data set [1], the chromatographic logD was 1.67.

Take `O=C(O)CC(NC(=O)CCCCc1ccc2c(n1)NCCC2)c1ccc(C(F)(F)F)cc1` (racemic): the half-maximal inhibitory concentration (IC50) at Integrin alpha-V/beta-6 is 631 nM; against Integrin alpha-V/beta-8, 794 nM; against Integrin alpha-V/beta-5 it was 316 nM; on Integrin alpha-V/beta-3, 251 nM. This compound displayed a chromatographic logD in data set [1] of 2.72.

Consider `Cc1ccccc1C(CC(=O)O)NC(=O)CCCCc1ccc2c(n1)NCCC2` (racemic), for which the IC50 at Integrin alpha-V/beta-6 was 398 nM; on Integrin alpha-V/beta-8, 1260 nM; against Integrin alpha-V/beta-5, 20 nM; at Integrin alpha-V/beta-3, 50.1 nM. In addition, the chromatographic logD in data set [1] was found to be 1.85.

For the compound `O=C(O)C[C@@H](NC(=O)CCCCc1ccc2c(n1)NCCC2)c1cccc(C(F)(F)F)c1`, the IC50 against Integrin alpha-V/beta-6 is 6310 nM; on Integrin alpha-V/beta-8, more than 10000 nM; at Integrin alpha-V/beta-5, 2000 nM; against Integrin alpha-V/beta-3 it was more than 10000 nM. Further, the chromatographic logD in data set [1] turned out to be 2.61.

Consider `Cc1cc(C)cc(C(CC(=O)O)NC(=O)CCCCc2ccc3c(n2)NCCC3)c1` (racemic), for which the IC50 against Integrin alpha-V/beta-6 is 501 nM; on Integrin alpha-V/beta-8, 631 nM; on Integrin alpha-V/beta-5, 398 nM; at Integrin alpha-V/beta-3 it was 398 nM. Moreover, the chromatographic logD in data set [1] was 2.43.

On to `Cc1ccc(C(CC(=O)O)NC(=O)CCCCc2ccc3c(n2)NCCC3)cc1` (racemic), for which the half-inhibitory concentration (IC50) against Integrin alpha-V/beta-6 is 794 nM; at Integrin alpha-V/beta-8 it was 1000 nM; against Integrin alpha-V/beta-5, 100 nM; against Integrin alpha-V/beta-3, 39.8 nM. This compound registered a chromatographic logD in data set [1] of 1.97.

On to `O=C(O)CC(NC(=O)CCCCc1ccc2c(n1)NCCC2)c1ccc2c(c1)CCC2` (racemic), for which the IC50 was 158 nM against Integrin alpha-V/beta-6, 398 nM against Integrin alpha-V/beta-8, 79.4 nM against Integrin alpha-V/beta-5 and 126 nM on Integrin alpha-V/beta-3. In data set [1], this compound displayed a chromatographic logD of 2.52.

Regarding `O=C(O)CC(NC(=O)CCCCc1ccc2c(n1)NCCC2)c1ccc(Cl)cc1` (racemic), the IC50 was 398 nM on Integrin alpha-V/beta-6, 631 nM against Integrin alpha-V/beta-8, 126 nM on Integrin alpha-V/beta-5 and 126 nM on Integrin alpha-V/beta-3. Besides, the chromatographic logD in data set [1] was 2.14.

With `O=C(O)CC(NC(=O)CCCCc1ccc2c(n1)NCCC2)c1ccc(-c2ccccc2)cc1` (racemic), the IC50 at Integrin alpha-V/beta-6 is 398 nM; against Integrin alpha-V/beta-8 it was 316 nM; against Integrin alpha-V/beta-5, 631 nM; on Integrin alpha-V/beta-3, 100 nM. This compound also came in with a chromatographic logD in data set [1] of 3.1.

For the compound `O=C(O)CC(NC(=O)CCCCc1ccc2c(n1)NCCC2)c1cccc(Cl)c1Cl` (racemic), the IC50 is 7940 nM on Integrin alpha-V/beta-6, 10000 nM against Integrin alpha-V/beta-8, 501 nM against Integrin alpha-V/beta-5 and 3980 nM on Integrin alpha-V/beta-3. The chromatographic logD in data set [1] was determined as 2.73.

As usually defined, the IC50 is the point on the concentration scale where inhibition reaches its midpoint. The low end stands for higher potency, the high end for lower potency. As usually defined, the logD is lipophilicity at a set pH, counting ionised and neutral species. A lower logD goes with a more hydrophilic compound. One may read the chromatographic logD as a lipophilicity value derived from retention on a column. Lower therefore signals a more hydrophilic compound.
